Data taken from patent US7041639B2, “Depsipeptide and congeners thereof for use as immunosuppressants” (XCYTE Therapies, Inc., priority 1999, dated 2006).
Where “and” joins values, the source holds several entries; their conditions need not be identical. Identical values can stand only once.

How the values were obtained:
[1] = test system: Haras transfected mouse fibroblasts (NIH-3T3); conditions: background statement; cited from earlier work
[2] = test system: IL-2 production by activated CD4 cells; test: IL-2 ELISA of supernatants; assay type: cell-based, human; conditions: ELISA after 24 h of 3×28 bead stimulation of purified CD4 cells; FIG. 6
Description: Cells are prepared as described above. Supernatants from cells stimulated 24 h are subjected to an IL-2 or TNF-α enzyme linked immunosorbant assay (ELISA) according to the manufacturer's instructions (Biosource International, Sunnyvale, Calif.).
To study the mechanism behind FR901228 inhibition of CD4 cell proliferation, IL-2 and TNF-α production by activated CD4 cells was analyzed. […] The reason for this difference is currently unknown.

NODSCID mice = test: Diabetes onset in NODSCID mice given NOD spleen cells; assay type: in vivo; conditions: 0.5 mg/kg i.p. every other day
Description: (§1) FR901228 was dissolved in 10% DMSO in PBS and were administered i.p. to NOD or NODSCID mice every other day. Controls contained only the DMSO excipient (10% DMSO in PBS). […] 0.5 mg/kg of FR901228 was administered at each treatment to twenty animals (ten NOD animals and ten NODSCID animals). Every two weeks the number of mice in each treatment group that had become diabetic was evaluated by measuring blood glucose levels using a glucometer at bi-weekly intervals. A reading of more than 200 mg/dl of blood glucose on two consecutive observations was considered indicative of frank diabetes.

bulk phosphorylation = test: Phosphotyrosine Western blots; assay type: cell-based
From the text: FR901228 has a number of features that aid its ability to act as a potent immunosuppressant. […] Thus, these observations indicate that compounds of structure (I) affect the T-cell activation pathway at multiple points, thus allowing activation to proceed into early stages, such as phosphorylation, but preventing subsequent events of activation and proliferation.

CD154 transcript = test: RT-PCR of the CD154 transcript; assay type: cell-based; conditions: 18 hours of stimulation with 3×28 beads; data not shown
Description: In separate experiments, RT-PCR of the CD154 transcript was carried out after 18 hours of stimulation with 3×28 beads and various amounts of FR901228. […] Experiments were also conducted using CD4 cells incubated with anti-sense constructs of c-myc. After stimulation by 3×28 beads for twenty-four hours, the anti-sense c-myc construct reduced CD154 expression as measured by flow cytometry by about 50% as compared to controls including:no construct, sense or transfection with a scrambled c-myc construct (data not shown). Accordingly, FR901228 and like compounds may target the activity of c-myc and its induction of CD154 as one mechanism of immune suppression.

A1.1 T-cell hybridoma = conditions: Wang et al., Oncogene 1998; cited from earlier work
NOD mice = test: Diabetes onset in NOD mice; assay type: in vivo; conditions: 0.5 mg/kg i.p. every other day; ten NOD animals
Description: as §1

T-cells = test: Cell survival / viability (sub-G1 DNA, membrane integrity, propidium iodide exclusion); assay type: cell-based, human
Description: Cells are stimulated by three different methodologies 1) Dynabeads (M-450) covalently coupled to anti-CD3 (OKT-3) and anti-CD28 (9.3) antibodies (3×28 beads) according to the manufacturer's instructions (Dynal), 3 beads/cell, 2) Ionomycin (Calbiochem, La Jolla, Calif.) (100 ng/ml) and phorbol 12-myristate-13-acetate (PMA) (Calbiochem) (10 ng/ml), 3) allogeneic dendritic cells (25,000 dendritic cells/200,000 CD4 cells). All cells are stimulated at a concentration of 1×10^6 cells/ml. Cells are incubated with compounds of structure (I) (e.g., FR901228) (NCI, Bethesda, Md.) for 1 to 2 hours prior to stimulation as outlined above. Proliferation assays are conducted in quadruplicate in 96 well flat-bottom plates. Cells are stimulated at 1×10^6 cells/ml in a final volume of 200 μl. Proliferation is measured by MTT assay (MTT assay kit, Chemicon International Inc., Temecula, Calif.) at day 3 (stimulation method 1 and 2) or at day 6 (stimulation method 3), and results are presented as mean value of quadruplicates. PBL cultures or purified CD4 cell cultures are stimulated with 3×28 beads, ionomycin/PMA or allogenic dendritic cells. […] Further, […] cell survival is not affected by FR901228, as assessed by sub-G1 DNA measurement and integrity of the cell membrane (FIG. 5D). […]

**Q.** Which results are given for `C/C=C1\NC(=O)[C@H]2CSSCC/C=C/[C@H](CC(=O)N[C@H](C(C)C)C(=O)N2)OC(=O)[C@H](C(C)C)NC1=O` [FR901228]?
**A.** transformation of Haras transfected NIH-3T3 [1]: inhibit transformation; lowest concentration that markedly inhibits IL-2 production [2]: 10 ng/mL; delay of onset of frank diabetes versus excipient only (NODSCID mice; frank diabetes = more than 200 mg/dl on two consecutive observations): at least two; blood glucose / status of single mouse, column 6 (5/9) (NODSCID mice; NODSCID, head 'age (wks.)' 6, one line per mouse): 261 mg/dL; blood glucose / status of single mouse, (5/23) (NODSCID mice; NODSCID, head 'age (wks.)' 8, one line per mouse, 0.5 mg/kg): 547 mg/dL and 527 mg/dL; blood glucose / status of single mouse, (6/6) (NODSCID mice; NODSCID, head 'age (wks.)' 10, one line per mouse, 0.5 mg/kg): 482 mg/dL and 526 mg/dL and 343 mg/dL and 317 mg/dL and 299 mg/dL and 412 mg/dL and 441 mg/dL and 494 mg/dL and 399 mg/dL and 285 mg/dL; blood glucose / status of single mouse, (6/20) (NODSCID mice; NODSCID, head 'age (wks.)' 12, one line per mouse, 0.5 mg/kg): High (2×) and 566 mg/dl and 596 mg/dl and 568 mg/dl and 539 mg/dl and 338 mg/dl and 240 mg/dl and Dead and 576 mg/dl; blood glucose / status of single mouse, 7/4 (NODSCID mice; NODSCID, head 'age (wks.)' 14, one line per mouse, 0.5 mg/kg): 536 mg/dl and 402 mg/dl and Dead (5×) and 494 mg/dl and 558 mg/dl; blood glucose / status of single mouse, column 16 (7/18) (NODSCID mice; NODSCID, head 'age (wks.)' 16, one line per mouse): 571 mg/dL; blood glucose / status of single mouse, column 18 (8/1) (NODSCID mice; NODSCID, head 'age (wks.)' 18, one line per mouse): Dead; bulk phosphorylation (bulk phosphorylation): does not affect; levels of CD154 expression by RT-PCR (CD154 transcript): reduced levels of CD154 expression with increasing amounts; CD3-induced IL-2 production (A1.1 T-cell hybridoma): did not inhibit; development of frank diabetes during the 18 week study (NOD mice): no NOD mouse treated with the compound developed frank diabetes; cell survival by sub-G1 DNA measurement and integrity of the cell membrane (T-cells; FIG. 5D): not affected; cell viability by propidium iodide (PI) exclusion (T-cells; concentrations up to 100 ng/ml): not significantly affected
